# Assay results reported in the supplement of paper PMC10307832.
# How the values were obtained:
# Assay in all cases: relative viability (nuclei count vs DMSO), 5 days (fraction); higher = more cells survive
# LK-2 = tested on: LK-2
# In short: (§1)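 After 5 days of treatment, lung cancer cells in 1536-well plates were fixed and stained in a single step (final 0.05% Triton X-100, 1% formaldehyde, 1 ug/ml Hoechst) and their nuclei counted on 4× images. Treatment had been applied by pin tool the day after seeding as one drug alone or as a fixed anchor-drug dose with five library-drug doses (not always all listed) in √10 steps. Relative viability is the nuclei count of treated wells divided by that of vehicle wells, and values are medians of duplicate plates.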
# RERF-LC-KJ = tested on: RERF-LC-KJ
# In short: as §1
# NCI-H1563 = tested on: NCI-H1563
# In short: as §1
# HCC-827 = tested on: HCC-827
# In short: as §1
# PC-3 [JPC-3] = tested on: PC-3 [JPC-3]
# In short: as §1
# NCI-H520 = tested on: NCI-H520
# In short: as §1
# NCI-H1437 = tested on: NCI-H1437
# In short: as §1
# EKVX = tested on: EKVX
# In short: as §1
# CAL-12T = tested on: CAL-12T
# In short: as §1
# NCI-H1650 = tested on: NCI-H1650
# In short: as §1
# HCC-15 = tested on: HCC-15
# In short: as §1
smiles,measurement,setting,value
NC(=O)Nc1cc(-c2cccc(F)c2)sc1C(=O)N[C@H]1CCCNC1 [AZD7762] + CS(=O)(=O)CCNCc1ccc(-c2ccc3ncnc(Nc4ccc(OCc5cccc(F)c5)c(Cl)c4)c3c2)o1 [Lapatinib] (partner 2 µM),relative viability,LK-2; first compound 0.01 µM,1.02
same,relative viability,LK-2; first compound 0.03162 µM,1.03
same,relative viability,LK-2; first compound 0.1 µM,0.759
same,relative viability,LK-2; first compound 0.3162 µM,0.828
same,relative viability,LK-2; first compound 1 µM,0.573
same,relative viability,RERF-LC-KJ; first compound 0.01 µM,0.865
same,relative viability,RERF-LC-KJ; first compound 0.03162 µM,0.894
same,relative viability,RERF-LC-KJ; first compound 0.1 µM,0.849
same,relative viability,RERF-LC-KJ; first compound 0.3162 µM,0.819
same,relative viability,RERF-LC-KJ; first compound 1 µM,0.956
same,relative viability,NCI-H1563; first compound 0.01 µM,0.868
same,relative viability,NCI-H1563; first compound 0.03162 µM,1.04
same,relative viability,NCI-H1563; first compound 0.1 µM,1.04
same,relative viability,NCI-H1563; first compound 0.3162 µM,0.982
same,relative viability,NCI-H1563; first compound 1 µM,0.904
same,relative viability,HCC-827; first compound 0.01 µM,0.202
same,relative viability,HCC-827; first compound 0.03162 µM,0.177
same,relative viability,HCC-827; first compound 0.1 µM,0.189
same,relative viability,HCC-827; first compound 0.3162 µM,0.178
same,relative viability,HCC-827; first compound 1 µM,0.197
same,relative viability,PC-3 [JPC-3]; first compound 0.01 µM,0.473
same,relative viability,PC-3 [JPC-3]; first compound 0.03162 µM,0.447
same,relative viability,PC-3 [JPC-3]; first compound 0.1 µM,0.372
same,relative viability,PC-3 [JPC-3]; first compound 0.3162 µM,0.46
same,relative viability,PC-3 [JPC-3]; first compound 1 µM,0.432
same,relative viability,NCI-H520; first compound 0.01 µM,0.825
same,relative viability,NCI-H520; first compound 0.03162 µM,0.864
same,relative viability,NCI-H520; first compound 0.1 µM,0.735
same,relative viability,NCI-H520; first compound 0.3162 µM,0.304
same,relative viability,NCI-H520; first compound 1 µM,0.254
same,relative viability,NCI-H1437; first compound 0.01 µM,0.809
same,relative viability,NCI-H1437; first compound 0.03162 µM,0.647
same,relative viability,NCI-H1437; first compound 0.1 µM,0.875
same,relative viability,NCI-H1437; first compound 0.3162 µM,0.841
same,relative viability,NCI-H1437; first compound 1 µM,0.526
same,relative viability,EKVX; first compound 0.01 µM,0.204
same,relative viability,EKVX; first compound 0.03162 µM,0.232
same,relative viability,EKVX; first compound 0.1 µM,0.206
same,relative viability,EKVX; first compound 0.3162 µM,0.253
same,relative viability,EKVX; first compound 1 µM,0.166
same,relative viability,CAL-12T; first compound 0.01 µM,0.781
same,relative viability,CAL-12T; first compound 0.03162 µM,0.649
same,relative viability,CAL-12T; first compound 0.1 µM,0.649
same,relative viability,CAL-12T; first compound 0.3162 µM,0.703
same,relative viability,CAL-12T; first compound 1 µM,0.314
same,relative viability,NCI-H1650; first compound 0.01 µM,0.747
same,relative viability,NCI-H1650; first compound 0.03162 µM,0.852
same,relative viability,NCI-H1650; first compound 0.1 µM,0.896
same,relative viability,NCI-H1650; first compound 0.3162 µM,0.434
same,relative viability,NCI-H1650; first compound 1 µM,0.167
same,relative viability,HCC-15; first compound 0.01 µM,0.842
same,relative viability,HCC-15; first compound 0.03162 µM,0.823
same,relative viability,HCC-15; first compound 0.1 µM,0.807
same,relative viability,HCC-15; first compound 0.3162 µM,0.782
same,relative viability,HCC-15; first compound 1 µM,0.907
